# Laboratory results from patent publication US8932986B2, “Herbicidal composition” (Sumitomo Chemical Company, Limited, priority 2012, dated 2015).
# Columns and labels:
# Digitaria ciliaris [1] = assay: Herbicidal activity, soil spray on day of sowing, pot test in greenhouse, evaluated after seven days (Example 2); assay type: in vivo; settings: 20 g/ha; sprayed on day of sowing; seven days after spray treatment; scale 0 to 100
# Method: (§1) Digitaria ciliaris was sowed on a plastic pot filled with a soil. Following the sowing, on the day of the sowing, a mixed liquid of flumioxazin, pyrasulfotole, and mefenpyr-diethyl was sprayed uniformly so that the amounts of the agents might become those shown in Table 2 in a sprayed water amount of 500 L/ha. The mixed liquid of flumioxazin, pyrasulfotole, and mefenpyr-diethyl was prepared by dissolving the respective compounds in prescribed amounts separately in acetone containing 2% (w/v) of Tween 20 (surfactant, produced by Tokyo Chemical Industry Co., Ltd.), diluting the respective solutions with water and then combining them, followed by dilution with water so that the final acetone concentration of the spray liquid might be 10% by volume. After the spray treatment, the pot was carried into a greenhouse. Seven days after the spray treatment, the herbicidal activity to Digitaria ciliaris was evaluated.
# Digitaria ciliaris [2] = assay: Herbicidal activity, soil spray on day of sowing, pot test in greenhouse, evaluated after ten days (Example 3); assay type: in vivo; settings: 2 g/ha; sprayed on day of sowing; ten days after spray treatment; scale 0 to 100
# Method: as §1, with “those as” for “those”, “Table 3” for “Table 2”, “greenhouse. Ten” for “greenhouse. Seven”
smiles,measurement,setting,value
C#CCN1C(=O)COc2cc(F)c(N3C(=O)C4=C(CCCC4)C3=O)cc21 [Flumioxazin],Herbicidal activity Digitaria ciliaris,Digitaria ciliaris [1],10
same,Herbicidal activity Digitaria ciliaris,Digitaria ciliaris [2],40
